According to patent publication US9346815B2, “5-chloro-2-difluoromethoxyphenyl pyrazolopyrimidine compounds, compositions and methods of use thereof” (Genentech, Inc., priority 2014, dated 2016):

Assays:
[1] = test system: JAK1-dependent STAT6 phosphorylation downstream of IL-13 stimulation in TF-1 human erythroleukemia cells; assay: JAK1 pathway assay in TF-1 cells (IL-13-pSTAT6, MSD); type: cell-based; conditions: Homo sapiens, TF-1, TF-1 cells, read-out: IL13-pSTAT6 EC50_TF-1
Description: JAK1 Pathway Assay in Cell Lines was Carried Out as Follows:
Inhibitor potency (EC50) was determined in cell-based assays designed to measure JAK1 dependent STAT phosphorylation.
In one assay approach, TF-1 human erythroleukemia cells obtained from the American Type Culture Collection (ATCC; Manassas, Va.) were used to measure JAK1-dependent STAT6 phosphorylation downstream of IL-13 stimulation. Prior to use in the assays, TF-1 cells were starved of GM-CSF overnight in OptiMEM medium (Life Technologies, Grand Island, N.Y.) supplemented with 0.5% charcoal/dextran stripped fetal bovine serum (FBS), 0.1 mM non-essential amino acids (NEAA), and 1 mM sodium pyruvate. The assays were run in 384-well plates in serum-free OptiMEM medium using 300,000 cells per well. In a second assay approach, BEAS-2B human bronchial epithelial cells obtained from ATCC were plated at 100,000 cells per well of a 96-well plate one day prior to the experiment. The BEAS-2B assay was run in complete growth medium (bronchial epithelial basal medium plus bulletkit; Lonza; Basel, Switzerland).
Test compounds were serially diluted 1:2 in DMSO and then diluted 1:50 in medium just before use. Diluted compounds were added to the cells, for a final DMSO concentration of 0.2%, and incubated for 30 min (for the TF-1 assay) or 1 hr (for the BEAS-2B assay) at 37° C. Then, cells were stimulated with human recombinant cytokine at their respective EC90 concentrations, as previously determined for each individual lot. Cells were stimulated with IL-13 (R&D Systems, Minneapolis, Minn.) for 15 min at 37° C. The TF-1 cell reactions were stopped by the direct addition of 10× lysis buffer (Cell Signaling Technologies, Danvers, Mass.), whereas the BEAS-2B cell incubations were halted by the removal of medium and addition of 1× lysis buffer. The resultant samples were frozen in the plates at −80° C. Compound mediated inhibition of STAT6 phosphorylation was measured in the cell lysates using MesoScale Discovery (MSD) technology (Gaithersburg, Md.).

[2] = target: isolated recombinant JAK1 kinase domain (Homo sapiens (Human), UniProt P23458); assay: JAK1 enzyme assay (Caliper LabChip, peptide phosphorylation); type: biochemical; conditions: isolated recombinant JAK1 kinase domain, 25 μM ATP
isolated recombinant JAK1 kinase domain, sequence (P23458 875-1153): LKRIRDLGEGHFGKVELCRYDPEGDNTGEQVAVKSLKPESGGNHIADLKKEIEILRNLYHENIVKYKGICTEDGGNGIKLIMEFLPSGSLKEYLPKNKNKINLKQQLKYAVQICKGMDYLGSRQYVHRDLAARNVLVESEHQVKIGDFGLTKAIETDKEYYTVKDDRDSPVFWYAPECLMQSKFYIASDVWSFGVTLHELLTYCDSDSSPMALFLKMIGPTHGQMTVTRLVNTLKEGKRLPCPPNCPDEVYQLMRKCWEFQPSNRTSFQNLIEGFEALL

[3] = target: isolated recombinant JAK2 kinase domain (Homo sapiens (Human), UniProt O60674); assay: JAK2 enzyme assay (Caliper LabChip, peptide phosphorylation); type: biochemical; conditions: 25 μM ATP
isolated recombinant JAK2 kinase domain, sequence (O60674 849-1124): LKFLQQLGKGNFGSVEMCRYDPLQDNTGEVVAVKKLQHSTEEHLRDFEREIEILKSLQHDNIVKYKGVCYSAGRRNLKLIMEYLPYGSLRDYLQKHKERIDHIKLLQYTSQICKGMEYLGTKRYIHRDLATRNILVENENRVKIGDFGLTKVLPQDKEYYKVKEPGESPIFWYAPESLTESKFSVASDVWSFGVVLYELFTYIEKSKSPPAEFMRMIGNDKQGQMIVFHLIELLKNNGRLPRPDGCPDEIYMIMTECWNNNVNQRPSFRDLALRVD

| SMILES | EC50 [1] [nM] | Ki [2] [nM] | Ki [3] [nM] |
| --- | --- | --- | --- |
| O=C(Nc1cn(CC(=O)N2CCC(NCCc3ccc(C(F)(F)F)cc3)CC2)nc1-c1cc(Cl)ccc1OC(F)F)c1cnn2cccnc12 [Example 93, N-[3-[5-chloro-2-(difluoromethoxy)phenyl]-1-[2-oxo-2-[4-[2-[4-(trifluoromethyl)phenyl]ethylamino]-1-piperidyl]ethyl]pyrazol-4-yl]pyrazolo[1,5-a]pyrimidine-3-carboxamide] | 95.9 | 1.28 | – |
| CN(C)C1CCN(C(=O)C2CCN(c3nc(-c4cc(Cl)ccc4OC(F)F)c(NC(=O)c4cnn5cccnc45)s3)CC2)CC1 [Example 197, N-[4-[5-chloro-2-(difluoromethoxy)phenyl]-2-[4-[4-(dimethylamino)piperidine-1-carbonyl]-1-piperidyl]thiazol-5-yl]pyrazolo[1,5-a]pyrimidine-3-carboxamide] | 6.2 | – | – |
| CN1CCC(n2cc(NC(=O)c3c(N)nn4cccnc34)c(-c3cc(Cl)ccc3OC(F)F)n2)CC1 [Example 184, 2-amino-N-[3-[5-chloro-2-(difluoromethoxy)phenyl]-1-(1-methyl-4-piperidyl)pyrazol-4-yl]pyrazolo[1,5-a]pyrimidine-3-carboxamide] | 3.5 | – | – |
| CN1C[C@H]2C[C@@H]1CN2C(=O)Cn1cc(NC(=O)c2c(N)nn3cccnc23)c(-c2cc(Cl)ccc2OC(F)F)n1 [Example 252, 2-amino-N-[3-[5-chloro-2-(difluoromethoxy)phenyl]-1-[2-[(1R,4R)-5-methyl-2,5-diazabicyclo[2.2.1]heptan-2-yl]-2-oxo-ethyl]pyrazol-4-yl]pyrazolo[1,5-a]pyrimidine-3-carboxamide] | 43 | – | – |
| CN1[C@@H]2CC[C@H]1CN(C(=O)Cn1cc(NC(=O)c3cnn4cccnc34)c(-c3cc(Cl)ccc3OC(F)F)n1)C2 [Example 242, N-[3-[5-chloro-2-(difluoromethoxy)phenyl]-l-[2-[(1S,5R)-8-methyl-3,8-diazabicyclo[3.2.1]octan-3-yl]-2-oxo-ethyl]pyrazol-4-yl]pyrazolo[1,5-a]pyrimidine-3-carboxamide] | – | 0.95 | 1.03 |
| Nc1nn2cccnc2c1C(=O)Nc1cn(CC(=O)N2CCN(CCO)CC2)nc1-c1cc(Cl)ccc1OC(F)F [Example 244, 2-amino-N-[3-[5-chloro-2-(difluoromethoxy)phenyl]-1-[2-[4-(2-hydroxyethyl)piperazin-1-yl]-2-oxo-ethyl]pyrazol-4-yl]pyrazolo[1,5-a]pyrimidine-3-carboxamide] | – | 0.49 | 0.24 |
| O=C(Nc1cn(CC(=O)N2CCN(CCCO)CC2)nc1-c1cc(Cl)ccc1OC(F)F)c1cnn2cccnc12 [Example 230, N-[3-[5-chloro-2-(difluoromethoxy)phenyl]-1-[2-[4-(3-hydroxypropyl)piperazin-1-yl]-2-oxo-ethyl]pyrazol-4-yl]pyrazolo[1,5-a]pyrimidine-3-carboxamide] | – | 0.61 | 0.71 |
| Nc1nn2cccnc2c1C(=O)Nc1cn(CC(=O)N2CCC(F)(F)C2)nc1-c1cc(Cl)ccc1OC(F)F [Example 282, 2-amino-N-[3-[5-chloro-2-(difluoromethoxy)phenyl]-1-[2-(3,3-difluoropyrrolidin-1-yl)-2-oxo-ethyl]pyrazol-4-yl]pyrazolo[1,5-a]pyrimidine-3-carboxamide] | – | 0.17 | 0.12 |
| O=C(Nc1cn(CC(=O)N2CCN3CCCCC3C2)nc1-c1cc(Cl)ccc1OC(F)F)c1cnn2cccnc12 (stereo not shown) [Example 241, N-[1-[2-(1,3,4,6,7,8,9,9a-octahydropyrido[1,2-a]pyrazin-2-yl)-2-oxo-ethyl]-3-[5-chloro-2-(difluoromethoxy)phenyl]pyrazol-4-yl]pyrazolo[1,5-a]pyrimidine-3-carboxamide] | – | 0.87 | 1.25 |
| CN(C1CCN(C(=O)Cn2cc(NC(=O)c3cnn4cccnc34)c(-c3cc(Cl)ccc3OC(F)F)n2)CC1)C(Cc1ccccc1)C(F)(F)F (stereo not shown) [Example 133, N-[1-[2-[4-[(1-benzyl-2,2,2-trifluoro-ethyl)-methyl-amino]-1-piperidyl]-2-oxo-ethyl]-3-[5-chloro-2-(difluoromethoxy)phenyl]pyrazol-4-yl]pyrazolo[1,5-a]pyrimidine-3-carboxamide] | – | 6.51 | 8.33 |
| CN(C)CCOC1CCN(C(=O)Cn2cc(NC(=O)c3cnn4cccnc34)c(-c3cc(Cl)ccc3OC(F)F)n2)CC1 [Example 73, N-[3-[5-chloro-2-(difluoromethoxy)phenyl]-1-[2-[4-[2-(dimethylamino)ethoxy]-1-piperidyl]-2-oxo-ethyl]pyrazol-4-yl]pyrazolo[1,5-a]pyrimidine-3-carboxamide] | – | 0.71 | 1.71 |
| CN1CCC2CN(C(=O)Cn3cc(NC(=O)c4cnn5cccnc45)c(-c4cc(Cl)ccc4OC(F)F)n3)CC2C1 (stereo not shown) [Example 30, N-[3-[5-chloro-2-(difluoromethoxy)phenyl]-1-[2-(5-methyl-3,3a,4,6,7,7a-hexahydro-1H-pyrrolo[3,4-c]pyridin-2-yl)-2-oxo-ethyl]pyrazol-4-yl]pyrazolo[1,5-a]pyrimidine-3-carboxamide] | – | 0.7 | 1.69 |
| CN(C)C1CN(C(=O)Cn2cc(NC(=O)c3cnn4cccnc34)c(-c3cc(Cl)ccc3OC(F)F)n2)C1 [Example 64, N-[3-[5-chloro-2-(difluoromethoxy)phenyl]-1-[2-[3-(dimethylamino)azetidin-1-yl]-2-oxo-ethyl]pyrazol-4-yl]pyrazolo[1,5-a]pyrimidine-3-carboxamide] | – | 0.66 | 0.84 |
| Nc1nn2cccnc2c1C(=O)Nc1cn(CC(=O)N2CCC(O)(c3ccccc3)CC2)nc1-c1cc(Cl)ccc1OC(F)F [Example 286, 2-amino-N-[3-[5-chloro-2-(difluoromethoxy)phenyl]-1-[2-(4-hydroxy-4-phenyl-1-piperidyl)-2-oxo-ethyl]pyrazol-4-yl]pyrazolo[1,5-a]pyrimidine-3-carboxamide] | – | 0.54 | 0.26 |
| CCOC(=O)CN(CCn1cc(NC(=O)c2cnn3cccnc23)c(-c2cc(Cl)ccc2OC(F)F)n1)Cc1cccnc1 [Example 362, ethyl 2-[(2-[3-[5-chloro-2-(difluoromethoxy)phenyl]-4-[pyrazolo[1,5-a]pyrimidine-3-amido]-1H-pyrazol-1-yl]ethyl)(pyridin-3-ylmethyl)amino]acetate] | – | 5.04 | 3.27 |
| O=C(Nc1cn(CC(=O)N2CCOC(CO)C2)nc1-c1cc(Cl)ccc1OC(F)F)c1cnn2cccnc12 (stereo not shown) [Example 277, N-[3-[5-chloro-2-(difluoromethoxy)phenyl]-1-[2-[2-(hydroxy-methyl)morpholin-4-yl]-2-oxo-ethyl]pyrazol-4-yl]pyrazolo[1,5-a]pyrimidine-3-carboxamide] | – | 0.51 | 0.83 |
| CC1(O)CCN(C(=O)Cn2cc(NC(=O)c3cnn4cccnc34)c(-c3cc(Cl)ccc3OC(F)F)n2)C1 (stereo not shown) [Example 269, N-[3-[5-chloro-2-(difluoromethoxy)phenyl]-1-[2-(3-hydroxy-3-methyl-pyrrolidin-1-yl)-2-oxo-ethyl]pyrazol-4-yl]pyrazolo[1,5-a]pyrimidine-3-carboxamide] | – | 0.33 | 0.83 |
| N#Cc1ccc(N2CCN(C(=O)Cn3cc(NC(=O)c4cnn5cccnc45)c(-c4cc(Cl)ccc4OC(F)F)n3)CC2)cc1 [Example 237, N-[3-[5-chloro-2-(difluoromethoxy)phenyl]-1-[2-[4-(4-cyanophenyl)piperazin-1-yl]-2-oxo-ethyl]pyrazol-4-yl]pyrazolo[1,5-a]pyrimidine-3-carboxamide] | – | 0.32 | 0.76 |
| COCCN1CCN(C(=O)Cn2cc(NC(=O)c3c(N)nn4cccnc34)c(-c3cc(Cl)ccc3OC(F)F)n2)CC1 [Example 245, 2-amino-N-[3-[5-chloro-2-(difluoromethoxy)phenyl]-1-[2-[4-(2-methoxyethyl)piperazin-1-yl]-2-oxo-ethyl]pyrazol-4-yl]pyrazolo[1,5-a]pyrimidine-3-carboxamide] | – | 0.35 | 0.22 |
| Nc1nn2cccnc2c1C(=O)Nc1cn(CC(=O)N2CCC(N3CC[C@@H](O)C3)CC2)nc1-c1cc(Cl)ccc1OC(F)F [Example 76, 2-amino-N-[3-[5-chloro-2-(difluoromethoxy)phenyl]-1-[2-[4-[(3R)-3-hydroxypyrrolidin-1-yl]-1-piperidyl]-2-oxo-ethyl]pyrazol-4-yl]pyrazolo[1,5-a]pyrimidine-3-carboxamide] | – | 0.5 | 0.52 |
